According to ChEMBL document CHEMBL5096194, “Development of Alectinib-Based PROTACs as Novel Potent Degraders of Anaplastic Lymphoma Kinase (ALK)” (J Med Chem, 2021):
Calls of active or inactive are those of the source. The rule behind the calls is not given here.

Experiments:
KARPAS-299 [1] = test: Antiproliferative activity against ALK-positive human KARPAS-299 cells assessed as inhibition of cell proliferation measured after 72 hrs by MTT assay; assay type: functional, cell-based; settings: KARPAS-299, 72 h
[2] = target: T1, Protein cereblon/ALK tyrosine kinase receptor/Echinoderm microtubule-associated protein-like 4 (Homo sapiens) (UniProt Q9UM73+Q9HC35+Q96SW2); test: Protac activity at CRBN/EML4-ALK in human NCI-H3122 cells assessed as induction of EML4-ALK fusion protein degradation at 1 uM incubated for 16 hrs by Western blot analysis relative to control; assay type: cell-based
NCI-H3122 = test: Antiproliferative activity against ALK-positive human NCI-H3122 cells assessed as inhibition of cell proliferation measured after 72 hrs by MTT assay; assay type: functional, cell-based; settings: NCI-H3122, 72 h
[3] = target: Signal transducer and activator of transcription 3 (Homo sapiens) (UniProt P40763); test: Inhibition of STAT3 phosphorylation in human KARPAS-299 cells as 0.01 to 1 uM measured after 24 hrs by Western blot analysis; assay type: cell-based; settings: dose 0.01-1 µM
[4] = target: T2, ALK tyrosine kinase receptor (Homo sapiens, UniProt Q9UM73); test: Inhibition of ALK phosphorylation in human KARPAS-299 cells at 0.01 to 1 uM measured after 24 hrs by Western blot analysis; assay type: cell-based; settings: dose 0.01-1 µM
Target sequence in this assay (Q9UM73 19-1620 limits assumed): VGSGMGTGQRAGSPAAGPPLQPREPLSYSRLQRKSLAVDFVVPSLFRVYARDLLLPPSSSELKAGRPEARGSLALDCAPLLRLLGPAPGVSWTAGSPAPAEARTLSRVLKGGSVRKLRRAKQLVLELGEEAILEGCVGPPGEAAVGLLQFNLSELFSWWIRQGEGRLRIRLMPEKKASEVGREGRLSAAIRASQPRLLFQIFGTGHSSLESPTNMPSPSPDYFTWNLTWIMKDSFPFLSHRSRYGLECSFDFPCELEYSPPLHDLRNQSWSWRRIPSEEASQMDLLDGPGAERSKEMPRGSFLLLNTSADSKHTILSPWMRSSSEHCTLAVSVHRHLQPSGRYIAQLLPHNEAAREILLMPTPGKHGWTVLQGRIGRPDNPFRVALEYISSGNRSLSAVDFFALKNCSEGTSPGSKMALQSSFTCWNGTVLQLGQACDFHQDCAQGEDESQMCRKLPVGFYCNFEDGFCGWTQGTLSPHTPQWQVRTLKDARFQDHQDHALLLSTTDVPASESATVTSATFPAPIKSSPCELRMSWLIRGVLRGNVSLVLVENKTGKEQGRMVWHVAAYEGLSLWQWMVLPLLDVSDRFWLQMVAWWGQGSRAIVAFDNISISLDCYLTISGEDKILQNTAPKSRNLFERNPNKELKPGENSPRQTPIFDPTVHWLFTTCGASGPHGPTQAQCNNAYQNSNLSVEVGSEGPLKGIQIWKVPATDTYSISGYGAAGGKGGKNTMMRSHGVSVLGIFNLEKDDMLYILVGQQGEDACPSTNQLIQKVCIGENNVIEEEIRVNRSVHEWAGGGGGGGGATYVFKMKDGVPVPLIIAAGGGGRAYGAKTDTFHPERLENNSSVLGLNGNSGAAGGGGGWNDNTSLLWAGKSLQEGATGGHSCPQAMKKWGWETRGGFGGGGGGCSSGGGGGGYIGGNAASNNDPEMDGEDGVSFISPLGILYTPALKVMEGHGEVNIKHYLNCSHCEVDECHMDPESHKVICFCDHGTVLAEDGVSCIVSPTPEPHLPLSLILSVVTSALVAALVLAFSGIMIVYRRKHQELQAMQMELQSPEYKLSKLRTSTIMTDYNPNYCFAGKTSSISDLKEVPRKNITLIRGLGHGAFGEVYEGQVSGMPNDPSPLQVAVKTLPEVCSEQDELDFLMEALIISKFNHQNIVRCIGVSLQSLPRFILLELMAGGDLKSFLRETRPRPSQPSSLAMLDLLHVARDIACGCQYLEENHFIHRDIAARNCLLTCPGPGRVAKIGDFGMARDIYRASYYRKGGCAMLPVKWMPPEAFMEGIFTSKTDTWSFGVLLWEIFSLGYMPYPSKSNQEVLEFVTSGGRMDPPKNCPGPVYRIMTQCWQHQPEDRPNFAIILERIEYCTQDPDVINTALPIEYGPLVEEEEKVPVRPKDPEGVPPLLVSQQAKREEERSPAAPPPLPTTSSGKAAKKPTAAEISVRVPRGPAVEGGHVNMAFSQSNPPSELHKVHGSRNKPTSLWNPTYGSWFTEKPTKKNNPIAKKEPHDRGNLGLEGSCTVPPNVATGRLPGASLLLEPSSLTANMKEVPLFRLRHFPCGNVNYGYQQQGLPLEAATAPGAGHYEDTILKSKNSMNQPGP

[5] = target: T3, Protein cereblon/ALK tyrosine kinase receptor/Nucleophosmin (Homo sapiens) (UniProt Q9UM73+P06748+Q96SW2); test: Protac activity at CRBN/NPM-ALK in human KARPAS-299 cells assessed as induction of NPM-ALK fusion protein degradation at 0.1 uM incubated for 24 hrs by Western blot analysis relative to control; assay type: cell-based
[6] = target: T3, Protein cereblon/ALK tyrosine kinase receptor/Nucleophosmin (Homo sapiens); test: Protac activity at CRBN/NPM-ALK in human KARPAS-299 cells assessed as induction of NPM-ALK fusion protein degradation at 1 uM incubated for 24 hrs by Western blot analysis relative to control; assay type: cell-based
[7] = target: T1, Protein cereblon/ALK tyrosine kinase receptor/Echinoderm microtubule-associated protein-like 4 (Homo sapiens); test: Protac activity at CRBN/EML4-ALK in human NCI-H3122 cells assessed as induction of EML4-ALK fusion protein degradation at 0.1 uM incubated for 16 hrs by Western blot analysis relative to control; assay type: cell-based
BaF3 [8] = test: Antiproliferative activity against crizotinib-resistant mouse BaF3 cells expressing EML-ALK G1202R mutant assessed as cell viability at 1 uM incubated for 72 hrs by Celltitre-Glo assay relative to control; assay type: functional; settings: read-out: Activity
BaF3 [9] = test: Antiproliferative activity against crizotinib-resistant mouse BaF3 cells expressing EML-ALK L1196M mutant assessed as cell viability at 1 uM incubated for 72 hrs by Celltitre-Glo assay relative to control; assay type: functional; settings: read-out: Activity
BaF3 [10] = test: Antiproliferative activity against crizotinib-resistant mouse BaF3 cells expressing EML-ALK L1152R mutant assessed as cell viability at 1 uM incubated for 72 hrs by Celltitre-Glo assay relative to control; assay type: functional; settings: read-out: Activity
BaF3 [11] = test: Antiproliferative activity against mouse BaF3 cells expressing wild type EML-ALK assessed as cell viability at 1 uM incubated for 72 hrs by Celltitre-Glo assay relative to control; assay type: functional; settings: read-out: Activity
KARPAS-299 [12] = test: Antiproliferative activity against human KARPAS-299 cells assessed as inhibition of cell growth measured after 72 hrs by MTT assay; assay type: functional, cell-based; settings: KARPAS-299, 72 h
BaF3 [13] = test: Antiproliferative activity against mouse BaF3 cells assessed as cell viability at 1 uM incubated for 72 hrs by Celltitre-Glo assay relative to control; assay type: functional; settings: read-out: Activity
[14] = target: T2, ALK tyrosine kinase receptor
[15] = Toxicity in NCG mouse xenografted with human KARPAS-299 cells assessed as body weight loss at 20 mg/kg, po administered once every day for 3 weeks; assay type: organism-based; settings: in vivo, 504 h
KARPAS-299 [16] = test: Antitumor activity against human KARPAS-299 cells xenografted in NCG mouse assessed as reduction in tumor weight at 20 mg/kg, po administered once every day for 3 weeks and measured every 3 days; assay type: functional, organism-based
KARPAS-299 [17] = test: Antitumor activity against human KARPAS-299 cells xenografted in NCG mouse assessed as reduction in tumor volume at 20 mg/kg, po administered once every day for 3 weeks and measured every 3 days; assay type: functional, organism-based
[18] = Toxicity in NCG mouse xenografted with human KARPAS-299 cells assessed as liver damage at 20 mg/kg, po administered once every day for 3 weeks by H and E staining based analysis; assay type: organism-based; settings: in vivo, 504 h
[19] = Toxicity in NCG mouse xenografted with human KARPAS-299 cells assessed as kidney damage at 20 mg/kg, po administered once every day for 3 weeks by H and E staining based analysis; assay type: organism-based; settings: in vivo, 504 h
[20] = target: Leukocyte tyrosine kinase receptor (Homo sapiens) (UniProt P29376); test: Inhibition of LTK (unknown origin) at 10 nM relative to control
[21] = Toxicity in NCG mouse xenografted with human KARPAS-299 cells assessed as lung damage at 20 mg/kg, po administered once every day for 3 weeks by H and E staining based analysis; assay type: organism-based; settings: in vivo, 504 h
[22] = Toxicity in NCG mouse xenografted with human KARPAS-299 cells assessed as heart damage at 20 mg/kg, po administered once every day for 3 weeks by H & E staining based analysis; assay type: organism-based; settings: in vivo, 504 h
KARPAS-299 [23] = test: Antitumor activity against human KARPAS-299 cells xenografted in NCG mouse assessed as tumor growth inhibition at 20 mg/kg, po administered once every day for 3 weeks and measured every 3 days relative to control; assay type: functional; settings: KARPAS-299, 504 h, read-out: TGI
[24] = Toxicity in NCG mouse xenografted with human KARPAS-299 cells assessed as spleen damage at 20 mg/kg, po administered once every day for 3 weeks by H and E staining based analysis; assay type: organism-based; settings: in vivo, 504 h

T3 sequence (P06748 whole entry partner, the tested form may be a part): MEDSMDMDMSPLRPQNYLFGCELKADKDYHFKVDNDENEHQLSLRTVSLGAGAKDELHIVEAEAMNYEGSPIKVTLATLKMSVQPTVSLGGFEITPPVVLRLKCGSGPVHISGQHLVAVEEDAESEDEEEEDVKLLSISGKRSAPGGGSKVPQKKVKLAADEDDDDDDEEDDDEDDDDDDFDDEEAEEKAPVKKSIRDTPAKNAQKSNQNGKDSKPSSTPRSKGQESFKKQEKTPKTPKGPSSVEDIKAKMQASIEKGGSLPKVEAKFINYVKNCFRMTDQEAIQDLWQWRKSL
T3 sequence (Q96SW2 whole entry partner, the tested form may be a part): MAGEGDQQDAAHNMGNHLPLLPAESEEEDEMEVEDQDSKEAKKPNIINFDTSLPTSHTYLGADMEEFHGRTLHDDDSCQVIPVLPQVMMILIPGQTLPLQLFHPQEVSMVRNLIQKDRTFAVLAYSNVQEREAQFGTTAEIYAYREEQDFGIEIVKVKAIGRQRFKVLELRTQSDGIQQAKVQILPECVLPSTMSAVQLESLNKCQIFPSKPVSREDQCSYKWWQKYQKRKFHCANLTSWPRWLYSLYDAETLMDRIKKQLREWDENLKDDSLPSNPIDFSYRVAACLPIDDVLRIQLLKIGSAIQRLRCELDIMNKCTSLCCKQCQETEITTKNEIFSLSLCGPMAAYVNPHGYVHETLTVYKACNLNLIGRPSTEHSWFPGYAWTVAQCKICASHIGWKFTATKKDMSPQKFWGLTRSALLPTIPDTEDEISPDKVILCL
T3 sequence (Q9UM73 19-1620 limits assumed): as the sequence (Q9UM73 19-1620 limits assumed) above
T1 sequence (Q96SW2 whole entry partner, the tested form may be a part): as the sequence (Q96SW2 whole entry partner, the tested form may be a part) above
T1 sequence (Q9HC35 whole entry partner, the tested form may be a part): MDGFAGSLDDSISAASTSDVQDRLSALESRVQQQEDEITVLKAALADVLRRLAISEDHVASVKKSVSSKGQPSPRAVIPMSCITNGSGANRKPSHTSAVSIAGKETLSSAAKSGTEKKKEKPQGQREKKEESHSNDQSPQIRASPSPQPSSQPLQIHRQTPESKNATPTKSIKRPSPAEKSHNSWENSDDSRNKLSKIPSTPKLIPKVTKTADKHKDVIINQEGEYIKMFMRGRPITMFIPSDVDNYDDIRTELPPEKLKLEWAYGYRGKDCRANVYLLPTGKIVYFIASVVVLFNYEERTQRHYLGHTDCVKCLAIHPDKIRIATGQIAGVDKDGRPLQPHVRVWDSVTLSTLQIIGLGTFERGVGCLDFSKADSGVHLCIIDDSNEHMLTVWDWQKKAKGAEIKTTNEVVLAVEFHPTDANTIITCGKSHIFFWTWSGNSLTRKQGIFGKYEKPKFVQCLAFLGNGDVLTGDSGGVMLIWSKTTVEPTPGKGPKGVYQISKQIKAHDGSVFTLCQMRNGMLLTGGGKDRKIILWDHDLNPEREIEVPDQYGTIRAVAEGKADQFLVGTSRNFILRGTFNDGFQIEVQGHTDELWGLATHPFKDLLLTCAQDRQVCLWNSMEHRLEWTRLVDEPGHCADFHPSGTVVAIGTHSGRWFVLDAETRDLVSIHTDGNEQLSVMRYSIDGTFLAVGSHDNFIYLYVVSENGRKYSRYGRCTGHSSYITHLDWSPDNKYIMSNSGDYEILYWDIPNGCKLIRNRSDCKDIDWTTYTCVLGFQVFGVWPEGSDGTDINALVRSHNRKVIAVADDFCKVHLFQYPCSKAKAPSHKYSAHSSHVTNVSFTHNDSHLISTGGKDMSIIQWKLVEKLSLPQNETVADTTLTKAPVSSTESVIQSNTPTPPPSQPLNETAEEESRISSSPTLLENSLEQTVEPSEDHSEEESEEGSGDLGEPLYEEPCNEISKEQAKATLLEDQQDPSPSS
T1 sequence (Q9UM73 19-1620 limits assumed): as the sequence (Q9UM73 19-1620 limits assumed) above
Sequence of Signal transducer and activator of transcription 3 (Homo sapiens) (P40763 whole entry): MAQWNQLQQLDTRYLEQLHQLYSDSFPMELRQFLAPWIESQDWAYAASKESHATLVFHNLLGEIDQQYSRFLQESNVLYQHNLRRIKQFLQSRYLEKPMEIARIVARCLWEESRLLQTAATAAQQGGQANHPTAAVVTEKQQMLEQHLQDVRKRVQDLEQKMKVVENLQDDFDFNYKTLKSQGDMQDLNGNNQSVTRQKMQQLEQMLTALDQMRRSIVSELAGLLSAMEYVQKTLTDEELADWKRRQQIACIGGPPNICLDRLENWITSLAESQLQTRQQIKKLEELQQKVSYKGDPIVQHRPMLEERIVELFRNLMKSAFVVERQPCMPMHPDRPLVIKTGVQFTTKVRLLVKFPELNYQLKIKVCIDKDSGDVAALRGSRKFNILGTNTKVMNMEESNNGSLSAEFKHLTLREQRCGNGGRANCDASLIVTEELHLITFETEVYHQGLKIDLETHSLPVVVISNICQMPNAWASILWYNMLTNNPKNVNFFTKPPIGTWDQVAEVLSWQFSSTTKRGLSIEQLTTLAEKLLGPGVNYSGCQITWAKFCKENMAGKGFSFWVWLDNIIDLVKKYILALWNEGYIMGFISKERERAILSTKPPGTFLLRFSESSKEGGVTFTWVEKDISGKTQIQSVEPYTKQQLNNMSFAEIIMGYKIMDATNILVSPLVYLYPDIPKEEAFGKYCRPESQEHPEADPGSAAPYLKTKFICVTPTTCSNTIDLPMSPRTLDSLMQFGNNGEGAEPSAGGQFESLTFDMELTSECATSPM
Sequence of Leukocyte tyrosine kinase receptor (Homo sapiens) (P29376 whole entry): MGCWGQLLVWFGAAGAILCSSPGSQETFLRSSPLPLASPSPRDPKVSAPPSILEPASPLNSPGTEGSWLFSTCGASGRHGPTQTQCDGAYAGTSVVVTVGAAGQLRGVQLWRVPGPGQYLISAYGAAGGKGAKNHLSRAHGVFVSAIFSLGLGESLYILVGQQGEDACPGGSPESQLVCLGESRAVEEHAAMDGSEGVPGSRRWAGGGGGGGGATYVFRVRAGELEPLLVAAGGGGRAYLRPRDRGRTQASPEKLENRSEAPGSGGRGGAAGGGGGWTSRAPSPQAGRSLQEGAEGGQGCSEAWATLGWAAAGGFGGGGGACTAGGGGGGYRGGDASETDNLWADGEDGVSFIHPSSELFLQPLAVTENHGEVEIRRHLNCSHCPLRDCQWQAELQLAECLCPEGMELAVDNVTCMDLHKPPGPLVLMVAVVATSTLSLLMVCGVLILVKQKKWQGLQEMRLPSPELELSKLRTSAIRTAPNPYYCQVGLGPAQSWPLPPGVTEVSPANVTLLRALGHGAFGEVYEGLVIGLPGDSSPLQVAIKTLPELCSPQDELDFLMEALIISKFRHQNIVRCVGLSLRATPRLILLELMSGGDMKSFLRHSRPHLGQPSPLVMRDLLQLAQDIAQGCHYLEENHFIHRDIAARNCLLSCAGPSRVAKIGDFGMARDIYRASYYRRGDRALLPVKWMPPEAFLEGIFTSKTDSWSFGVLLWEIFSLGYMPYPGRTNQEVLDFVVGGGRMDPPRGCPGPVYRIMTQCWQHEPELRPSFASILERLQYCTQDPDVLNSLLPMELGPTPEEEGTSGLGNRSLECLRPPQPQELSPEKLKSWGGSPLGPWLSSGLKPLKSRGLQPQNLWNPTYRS

## CCc1cc2c(cc1N1CCC(N3CCN(c4cccc5c4C(=O)N(C4CCC(=O)NC4=O)C5=O)CC3)CC1)C(C)(C)c1[nH]c3cc(C#N)ccc3c1C2=O (stereo not drawn)
KARPAS-299 [1]
  IC50: 640 nM
[2]
  Activity: 50.6%
NCI-H3122
  IC50: 612 nM

## CCc1cc2c(cc1N1CCN(C(=O)CCCCCNc3cccc4c3C(=O)N(C3CCC(=O)NC3=O)C4=O)CC1)C(C)(C)c1[nH]c3cc(C#N)ccc3c1C2=O (stereo not drawn)
KARPAS-299 [1]
  IC50: 245 nM
[3]
  inhibition: Active
[4]
  inhibition: Active
[5]
  Activity: 55.1%
[6]
  Activity: 71.6%
NCI-H3122
  IC50: 269 nM

## CCc1cc2c(cc1N1CCC(N3CCN(CC(=O)NCCNc4cccc5c4C(=O)N(C4CCC(=O)NC4=O)C5=O)CC3)CC1)C(C)(C)c1[nH]c3cc(C#N)ccc3c1C2=O (stereo not drawn)
KARPAS-299 [1]
  IC50: 111 nM
[2]
  Activity: 91%
[7]
  Activity: 47.8%
NCI-H3122
  IC50: 121 nM

## CCc1cc2c(cc1N1CCN(c3cccc4c3C(=O)N(C3CCC(=O)NC3=O)C4=O)CC1)C(C)(C)c1[nH]c3cc(C#N)ccc3c1C2=O (stereo not drawn)
KARPAS-299 [1]
  IC50: 101 nM
[2]
  Activity: 50.2%
[6]
  Activity: 29.9%
[7]
  Activity: 24.3%
NCI-H3122
  IC50: 186 nM

## CCc1cc2c(cc1N1CCC(N3CCN(CC(=O)NCCCCNc4cccc5c4C(=O)N(C4CCC(=O)NC4=O)C5=O)CC3)CC1)C(C)(C)c1[nH]c3cc(C#N)ccc3c1C2=O (stereo not drawn)
KARPAS-299 [1]
  IC50: 119 nM
BaF3 [8]
  viability at 1 µM: 70.9%
BaF3 [9]
  viability at 1 µM: 3.6%
[2]
  Activity: 87%
[7]
  Activity: 49.9%
BaF3 [10]
  viability at 1 µM: 0.1%
BaF3 [11]
  viability at 1 µM: 0.1%
NCI-H3122
  IC50: 96 nM

## Nc1cccc2c1C(=O)N(C1CCC(=O)NC1=O)C2=O (stereo not drawn) [POMALIDOMIDE]
KARPAS-299 [12]
  IC50: > 10000 nM

## CCc1cc2c(cc1N1CCN(CC(=O)NCCNc3cccc4c3C(=O)N(C3CCC(=O)NC3=O)C4=O)CC1)C(C)(C)c1[nH]c3cc(C#N)ccc3c1C2=O (stereo not drawn)
KARPAS-299 [1]
  IC50: 106 nM
[3]
  inhibition: Active
[4]
  inhibition: Active
[2]
  Activity: 81.8%
[5]
  Activity: 68.3%
[6]
  Activity: 57.8%
[7]
  Activity: 74.4%
NCI-H3122
  IC50: 121 nM

## CCc1cc2c(cc1N1CCNCC1)C(C)(C)c1[nH]c3cc(C#N)ccc3c1C2=O
KARPAS-299 [1]
  IC50: 46 nM
BaF3 [8]
  viability at 1 µM: 0.5%
BaF3 [9]
  viability at 1 µM: 0.1%
BaF3 [13]
  viability at 1 µM: 74%
[14]
  IC50: 320 nM
BaF3 [10]
  viability at 1 µM: 0%
BaF3 [11]
  viability at 1 µM: 0.2%
NCI-H3122
  IC50: 38 nM

## CCc1cc2c(cc1N1CCN(CC(=O)NCCCCCCNc3cccc4c3C(=O)N(C3CCC(=O)NC3=O)C4=O)CC1)C(C)(C)c1[nH]c3cc(C#N)ccc3c1C2=O (stereo not drawn)
KARPAS-299 [1]
  IC50: 114 nM
[3]
  inhibition: Active
[4]
  inhibition: Active
[2]
  Activity: 75.8%
[5]
  Activity: 66.5%
[6]
  Activity: 69.8%
[7]
  Activity: 51.3%
NCI-H3122
  IC50: 116 nM

## CCc1cc2c(cc1N1CCC(N3CCN(C(=O)CNc4cccc5c4C(=O)N(C4CCC(=O)NC4=O)C5=O)CC3)CC1)C(C)(C)c1[nH]c3cc(C#N)ccc3c1C2=O (stereo not drawn)
KARPAS-299 [1]
  IC50: 107 nM
[3]
  inhibition: Active
[4]
  inhibition: Active
[2]
  Activity: 96.9%
[5]
  Activity: 72.8%
[6]
  Activity: 94.3%
[7]
  Activity: 77.3%
NCI-H3122
  IC50: 107 nM

## CCc1cc2c(cc1N1CCN(C(=O)CCCNc3cccc4c3C(=O)N(C3CCC(=O)NC3=O)C4=O)CC1)C(C)(C)c1[nH]c3cc(C#N)ccc3c1C2=O (stereo not drawn)
KARPAS-299 [1]
  IC50: 66 nM
[3]
  inhibition: Active
[4]
  inhibition: Active
[5]
  Activity: 77.4%
[6]
  Activity: 85.9%
NCI-H3122
  IC50: 92 nM

## CCc1cc2c(cc1N1CCC(N3CCOCC3)CC1)C(C)(C)c1[nH]c3cc(C#N)ccc3c1C2=O [ALECTINIB]
[15]
  Activity: Non-Toxic
KARPAS-299 [1]
  IC50: 47 nM
BaF3 [8]
  viability at 1 µM: 73.3%
BaF3 [9]
  viability at 1 µM: 1.9%
KARPAS-299 [16]
  Activity: Active
BaF3 [13]
  viability at 1 µM: 100%
KARPAS-299 [17]
  Activity: Active
[18]
  Activity: Non-Toxic
[19]
  Activity: Non-Toxic
BaF3 [10]
  viability at 1 µM: 0%
[20]
  inhibition: > 50%
[21]
  Activity: Non-Toxic
[22]
  Activity: Non-Toxic
KARPAS-299 [23]
  inhibition in vivo at 20 mg/kg: 63.8%
[24]
  Activity: Non-Toxic
BaF3 [11]
  viability at 1 µM: 0.1%
NCI-H3122
  IC50: 45 nM

## CCc1cc2c(cc1N1CCN(CC(=O)NCCCCNc3cccc4c3C(=O)N(C3CCC(=O)NC3=O)C4=O)CC1)C(C)(C)c1[nH]c3cc(C#N)ccc3c1C2=O (stereo not drawn)
KARPAS-299 [1]
  IC50: 97 nM
BaF3 [8]
  viability at 1 µM: 76.1%
BaF3 [9]
  viability at 1 µM: 4.8%
[3]
  inhibition: Active
[4]
  inhibition: Active
[2]
  Activity: 75.7%
[5]
  Activity: 56.5%
[6]
  Activity: 76%
[7]
  Activity: 38.3%
BaF3 [10]
  viability at 1 µM: 0%
BaF3 [11]
  viability at 1 µM: 0.1%
NCI-H3122
  IC50: 77 nM

## CCc1cc2c(cc1N1CCN(C(=O)CNc3cccc4c3C(=O)N(C3CCC(=O)N(C)C3=O)C4=O)CC1)C(C)(C)c1[nH]c3cc(C#N)ccc3c1C2=O (stereo not drawn)
KARPAS-299 [1]
  IC50: 275 nM
[14]
  IC50: 30600 nM
NCI-H3122
  IC50: 272 nM

## CCc1cc2c(cc1N1CCC(N3CCNCC3)CC1)C(C)(C)c1[nH]c3cc(C#N)ccc3c1C2=O
KARPAS-299 [1]
  IC50: 50 nM
BaF3 [8]
  viability at 1 µM: 0.3%
BaF3 [9]
  viability at 1 µM: 0.1%
[14]
  IC50: 290 nM
BaF3 [10]
  viability at 1 µM: 0.1%
BaF3 [11]
  viability at 1 µM: 0.2%
NCI-H3122
  IC50: 40 nM

## CCc1cc2c(cc1N1CCC(N3CCN(CC(=O)NCCCCCCNc4cccc5c4C(=O)N(C4CCC(=O)NC4=O)C5=O)CC3)CC1)C(C)(C)c1[nH]c3cc(C#N)ccc3c1C2=O (stereo not drawn)
KARPAS-299 [1]
  IC50: 119 nM
[2]
  Activity: 77.3%
[7]
  Activity: 24.5%
NCI-H3122
  IC50: 118 nM
